± gives the uncertainty stated by the source.
Assay: xn = mol fraction of the nth substance listed

C=CC(C)O (centres undefined) + O
viscosity [mPa·s], 101.32 kPa
Settings | x1 = 0.1003 | x1 = 0.2 | x1 = 0.3004 | x1 = 0.4 | x1 = 0.5013 | x1 = 0.601 | x1 = 0.7012 | x1 = 0.8046 | x1 = 0.9031
308.15 K | 1.553 ± 0.024 | 1.858 ± 0.029 | 1.854 ± 0.029 | 1.765 ± 0.028 | 1.682 ± 0.027 | 1.566 ± 0.026 | 1.457 ± 0.025 | 1.387 ± 0.024 | 1.331 ± 0.024
313.15 K | 1.347 ± 0.021 | 1.617 ± 0.025 | 1.612 ± 0.025 | 1.535 ± 0.025 | 1.461 ± 0.024 | 1.369 ± 0.023 | 1.28 ± 0.022 | 1.231 ± 0.022 | 1.171 ± 0.021
318.15 K | 1.189 ± 0.019 | 1.405 ± 0.022 | 1.404 ± 0.023 | 1.345 ± 0.022 | 1.281 ± 0.021 | 1.209 ± 0.021 | 1.13 ± 0.02 | 1.08 ± 0.019 | 1.044 ± 0.019
323.15 K | 1.049 ± 0.017 | 1.243 ± 0.02 | 1.24 ± 0.02 | 1.187 ± 0.02 | 1.138 ± 0.019 | 1.078 ± 0.019 | 1.007 ± 0.018 | 0.9691 ± 0.018 | 0.9323 ± 0.017

CCCC(=O)[O-].[Na+] + O
298.15 K, 101.33 kPa
Settings | viscosity [mPa·s]
x1 = 0.008927 | 1.136 ± 0.012
x1 = 0.0177 | 1.436 ± 0.015
x1 = 0.02631 | 1.793 ± 0.018
x1 = 0.03478 | 2.235 ± 0.022

COCCOCCOC + O
Settings | viscosity [mPa·s]
298.15 K, 101 kPa, x1 = 0.021 | 1.36 ± 0.41
298.15 K, 101 kPa, x1 = 0.04611 | 2.03 ± 0.61
298.15 K, 101 kPa, x1 = 0.08173 | 2.84 ± 0.85
298.15 K, 101 kPa, x1 = 0.135 | 3.11 ± 0.94
298.15 K, 101.32 kPa, x1 = 0.0104 | 1.16 ± 0.007
298.15 K, 101.32 kPa, x1 = 0.0199 | 1.362 ± 0.008
298.15 K, 101.32 kPa, x1 = 0.0677 | 2.567 ± 0.018
298.15 K, 101.32 kPa, x1 = 0.1 | 2.959 ± 0.021
298.15 K, 101.32 kPa, x1 = 0.1492 | 3.175 ± 0.023
298.15 K, 101.32 kPa, x1 = 0.1978 | 2.936 ± 0.021
298.15 K, 101.32 kPa, x1 = 0.2959 | 2.342 ± 0.016
298.15 K, 101.32 kPa, x1 = 0.4011 | 1.881 ± 0.012
298.15 K, 101.32 kPa, x1 = 0.4988 | 1.552 ± 0.01
298.15 K, 101.32 kPa, x1 = 0.577 | 1.398 ± 0.009
298.15 K, 101.32 kPa, x1 = 0.8569 | 1.084 ± 0.006
298.15 K, 101.33 kPa, x1 = 0.0091 | 1.139 ± 0.009
298.15 K, 101.33 kPa, x1 = 0.0188 | 1.403 ± 0.011
298.15 K, 101.33 kPa, x1 = 0.0295 | 1.691 ± 0.013
298.15 K, 101.33 kPa, x1 = 0.051 | 2.246 ± 0.017
298.15 K, 101.33 kPa, x1 = 0.0854 | 2.993 ± 0.022
298.15 K, 101.33 kPa, x1 = 0.1194 | 3.328 ± 0.024
298.15 K, 101.33 kPa, x1 = 0.1604 | 3.232 ± 0.023
298.15 K, 101.33 kPa, x1 = 0.2099 | 2.993 ± 0.021
298.15 K, 101.33 kPa, x1 = 0.2597 | 2.661 ± 0.019
298.15 K, 101.33 kPa, x1 = 0.3028 | 2.389 ± 0.017
298.15 K, 101.33 kPa, x1 = 0.3461 | 2.153 ± 0.015
298.15 K, 101.33 kPa, x1 = 0.3843 | 1.982 ± 0.014
298.15 K, 101.33 kPa, x1 = 0.4327 | 1.791 ± 0.013
298.15 K, 101.33 kPa, x1 = 0.4651 | 1.691 ± 0.012
298.15 K, 101.33 kPa, x1 = 0.5196 | 1.536 ± 0.011
298.15 K, 101.33 kPa, x1 = 0.608 | 1.356 ± 0.009
298.15 K, 101.33 kPa, x1 = 0.659 | 1.272 ± 0.009
298.15 K, 101.33 kPa, x1 = 0.7695 | 1.145 ± 0.008
298.15 K, 101.33 kPa, x1 = 0.8171 | 1.103 ± 0.008
298.15 K, 101.33 kPa, x1 = 0.8712 | 1.066 ± 0.007
298.15 K, 101.33 kPa, x1 = 0.9453 | 1.024 ± 0.007
303.15 K, 101 kPa, x1 = 0.021 | 1.19 ± 0.36
303.15 K, 101 kPa, x1 = 0.04611 | 1.71 ± 0.52
303.15 K, 101 kPa, x1 = 0.08173 | 2.35 ± 0.71
303.15 K, 101 kPa, x1 = 0.135 | 2.62 ± 0.79
313.15 K, 101 kPa, x1 = 0.021 | 0.94 ± 0.28
313.15 K, 101 kPa, x1 = 0.04611 | 1.27 ± 0.38
313.15 K, 101 kPa, x1 = 0.08173 | 1.75 ± 0.53
313.15 K, 101 kPa, x1 = 0.135 | 1.93 ± 0.58
323.15 K, 101 kPa, x1 = 0.021 | 0.78 ± 0.24
323.15 K, 101 kPa, x1 = 0.04611 | 1.01 ± 0.3
323.15 K, 101 kPa, x1 = 0.08173 | 1.34 ± 0.4
323.15 K, 101 kPa, x1 = 0.135 | 1.46 ± 0.44

Oc1ccccc1 + O=C1CCCCC1
298.15 K, 101.3 kPa
Settings | viscosity [mPa·s]
x2 = 0.79 | 2.24 ± 0.02
x2 = 0.9 | 2.02 ± 0.02

Oc1ccccc1 + O=Cc1ccccc1
308.15 K, 101.33 kPa
Settings | viscosity [mPa·s]
x2 = 0.107 | 4.318 ± 0.053
x2 = 0.303 | 2.944 ± 0.036
x2 = 0.39 | 2.642 ± 0.033
x2 = 0.499 | 2.401 ± 0.03
x2 = 0.595 | 1.989 ± 0.025
x2 = 0.706 | 1.55 ± 0.019
x2 = 0.904 | 1.2 ± 0.015

ClC(Cl)C(Cl)Cl + O=S1(=O)CCCC1
viscosity [mPa·s], 100 kPa
Settings | x2 = 0.0224 | x2 = 0.1377 | x2 = 0.2568 | x2 = 0.3746 | x2 = 0.4803 | x2 = 0.5855 | x2 = 0.7134 | x2 = 0.8418 | x2 = 0.9751
303.15 K | 1.674 ± 0.043 | 2.8 ± 0.068 | 3.962 ± 0.094 | 5.052 ± 0.12 | 5.983 ± 0.13 | 6.858 ± 0.15 | 7.865 ± 0.16 | 8.855 ± 0.18 | 9.835 ± 0.19
308.15 K | 1.537 ± 0.039 | 2.519 ± 0.062 | 3.525 ± 0.084 | 4.469 ± 0.1 | 5.292 ± 0.12 | 6.043 ± 0.13 | 6.927 ± 0.15 | 7.779 ± 0.16 | 8.631 ± 0.17
313.15 K | 1.417 ± 0.036 | 2.285 ± 0.056 | 3.173 ± 0.076 | 4.004 ± 0.094 | 4.72 ± 0.11 | 5.396 ± 0.12 | 6.171 ± 0.13 | 6.937 ± 0.14 | 7.691 ± 0.16

Source: the CheMixHub viscosity set
